Test results: patent publication US9422566B2, “Gene cluster for biosynthesis of griselimycin and methylgriselimycin” (SANOFI, priority 2011, dated 2016)

What was measured:
Type in all cases: biochemical, Streptomyces DSM 22643
Conditions in all cases: in vitro ATP-[32P]PPi exchange, amino acid 5 mM, 30° C., nine substrates tested
[1] = test system: A domain of module 8 (A8) of NRPS-2; test: ATP-PPi exchange assay, substrate specificity of A domain A8
Protocol: (§1) In order to gain insight into the specificity of the A domains of modules 2, 5 and 8, the domains were recombinantly produced and their specificity analysed via an ATP/PPi exchange assay in vitro.
(§2) In order to directly investigate A domain substrate specificity, we aimed to express A domains A2, A5 and A8 from the griselimycin pathway as N-terminally His6-tagged proteins from pET28b (+). […]
(§3) Substrate specificity of the 3 purified adenylation domains was evaluated using the established ATP-PPi exchange assay (Mootz and Marahiel. 1997, Thomas et al., 2002). […] As a control, each protein was incubated in the absence of added amino acid, to determine the radioactivity background reaction. […]
(§4) To determine substrate specificity, ATP-[^32P]PPi reactions (100 μl) containing Tris-HCl (pH 7.5, 75 mM), MgCl2 (10 mM), […] (5 mM), amino acid (5 mM), and protein (2 μg) were performed at 30° C. ^32P-tetrasodium pyrophosphate was obtained from Perkin Elmer (NEN #NEX019). […] The charcoal was pelleted by centrifugation prior to being washed twice with the washing solution 0.1 M Na4P2O7 and 0.35 M perchloric acid in H2O), resuspended in H2O (500 μl), and counted by liquid scintillation (Beckman LS6500).

[2] = test system: A domain of module 2 (A2) of NRPS-1; test: ATP-PPi exchange assay, substrate specificity of A domain A2
Protocol: as §1, §2, §3, §4

[3] = test system: A domain of module 5 (A5) of NRPS-1; test: ATP-PPi exchange assay, substrate specificity of A domain A5
Protocol: as §1, §2, §3, §4

SMILES | specificity of the domain A8 for the substrate [1] | specificity of the domain A2 for the substrate [2] | specificity of the domain A5 for the substrate [3]
O=C(O)[C@@H]1CCCN1 [L-proline] | high specificity | – | –
C[C@H]1CN[C@H](C(=O)O)C1 [(2S,4R)-4-methylproline] | highest | highest | highest
